We go through 21 compounds from US20200405697A1, “Antitumor Agent” (Taiho Pharmaceutical Co., Ltd, priority 2017, published 2020).

The target of this experiment is T1, human RNR (histidine tagged human M1 and human M2 proteins) (Homo sapiens, UniProt P23921).
T1 construct: made in house; host or cells: Escherichia coli
T1 sequence (P23921 1-792): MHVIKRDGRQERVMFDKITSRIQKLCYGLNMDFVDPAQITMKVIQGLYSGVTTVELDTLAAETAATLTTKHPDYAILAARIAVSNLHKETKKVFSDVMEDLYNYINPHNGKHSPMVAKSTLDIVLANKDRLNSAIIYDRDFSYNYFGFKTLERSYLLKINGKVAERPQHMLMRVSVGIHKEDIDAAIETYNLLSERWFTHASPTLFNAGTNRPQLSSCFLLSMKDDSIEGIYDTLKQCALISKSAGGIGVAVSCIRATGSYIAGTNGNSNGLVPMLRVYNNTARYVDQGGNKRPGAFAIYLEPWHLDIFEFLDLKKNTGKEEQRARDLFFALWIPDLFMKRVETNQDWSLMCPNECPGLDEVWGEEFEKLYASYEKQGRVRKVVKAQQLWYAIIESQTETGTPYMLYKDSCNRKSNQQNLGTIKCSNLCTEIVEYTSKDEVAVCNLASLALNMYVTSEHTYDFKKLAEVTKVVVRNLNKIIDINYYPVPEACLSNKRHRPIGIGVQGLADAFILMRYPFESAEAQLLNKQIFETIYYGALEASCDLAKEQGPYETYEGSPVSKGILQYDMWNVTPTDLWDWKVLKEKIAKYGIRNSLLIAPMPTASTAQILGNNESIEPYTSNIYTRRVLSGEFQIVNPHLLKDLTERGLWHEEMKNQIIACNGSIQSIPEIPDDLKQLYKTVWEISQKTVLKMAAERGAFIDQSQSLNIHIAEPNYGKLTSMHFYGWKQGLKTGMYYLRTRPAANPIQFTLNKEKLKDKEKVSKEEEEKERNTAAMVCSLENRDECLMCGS
The experiment is described as follows: Human RNR inhibition effect (dCDP formation from CDP). It counts as biochemical. The note with it: 10 μM CDP, 37° C. for 30 minutes, read-out: RNR inhibitory activity IC50. Here is the method:
The inhibitory activity against the ribonucleotide reduction reaction (RNR inhibitory activity) of the Example compound was determined by measuring the formation of deoxycytidine diphosphate (hereinafter referred to as dCDP) from cytidine diphosphate (hereinafter referred to as CDP) by the following method.
Human M1 subunit (isoform 1, GenBank accession No: NM_001033), to which a histidine tag is fused at the amino terminus, and human M2 subunit (mutant lacking amino terminal 59 amino acids of isoform 2, GenBank accession No: NM_001034), to which a histidine tag is fused, were overexpressed in Escherichia coli and were solubilized after collection, and histidine tagged human M1 and histidine tagged human M2 proteins were purified on a nickel chelate column. A mixture of the histidine tagged human M1 and histidine tagged human M2 proteins was used as RNR in the ribonucleotide reduction reaction. [to]
First, Example compounds were serially diluted with DMSO. Next, human M1 protein and human M2 protein were added to a 0.02% aqueous albumin solution derived from fetal bovine serum, a DMSO solution of the Example compound or the control DMSO solution (final concentration of DMSO was 1%) was added, and the mixture was allowed to stand for 20 minutes. Thereafter, the reaction buffer [50 mM HEPES buffer (pH 7.2) at the final concentration, 4 mM magnesium acetate at the final concentration, 100 mM potassium chloride at the final concentration, 6 mM dithiothreitol at the final concentration, 2 mM adenosine triphosphate at the final concentration, 0.24 mM nicotinamide adenine dinucleotide phosphate at final concentration] and 10 μM CDP at the final concentration were added and incubated at 37° C. for 30 minutes to perform ribonucleotide reduction reaction. Immediately after the reaction, the reaction was stopped by heating at 100° C. for 15 minutes, followed by centrifugation at 10,000 rpm for 10 minutes. After the centrifugation, a portion (5 μL) of the resulting supernatant was analyzed with a high performance liquid chromatography (Shimadzu Corporation, Prominence) using Shim-pack XR-ODS (manufactured by Shimadzu GLC Co., 3.0×100 mm).
As for `COc1cc(Cl)ccc1S(=O)(=O)N[C@H](c1n[nH]c(=O)o1)[C@H](C)c1c(F)ccc(-c2ccc(Cl)nc2)c1C` [Example 313, 4-chloro-N-((1S,2R)-2-(3-(6-chloropyridin-3-yl)-6-fluoro-2-methylphenyl)-1-(5-oxo-4,5-dihydro-1,3,4-oxadiazol-2-yl)propyl)-2-methoxybenzenesulfonamide], the IC50 amounted to 340 nM.

Regarding `COc1cc(Cl)ccc1S(=O)(=O)N[C@H](c1n[nH]c(=O)o1)[C@H](C)c1c(F)ccc2ccccc12` [Example 76, 4-chloro-N-((1S,2R)-2-(2-fluoronaphthalen-1-yl)-1-(5-oxo-4,5-dihydro-1,3,4-oxadiazol-2-yl)propyl)-2-methoxybenzenesulfonamide], the IC50 worked out at 200 nM.

For `Cc1ccc(F)c([C@@H](C)[C@H](NS(=O)(=O)c2ccc(Cl)c3c2OCCN3)c2n[nH]c(=O)o2)c1C` [Example 275, 5-chloro-N-((1S,2R)-2-(6-fluoro-2,3-dimethylphenyl)-1-(5-oxo-4,5-dihydro-1,3,4-oxadiazol-2-yl)propyl)-3,4-dihydro-2H-benzo[b][1,4]oxazine-8-sulfonamide], the IC50 was 100 nM.

For `CNC(=O)c1cc(Cl)ccc1S(=O)(=O)N[C@H](c1n[nH]c(=O)o1)[C@H](C)c1c(F)ccc(C)c1C` [Example 277, 5-chloro-2-(N-((1S,2R)-2-(6-fluoro-2,3-dimethylphenyl)-1-(5-oxo-4,5-dihydro-1,3,4-oxadiazol-2-yl)propyl)sulfamoyl)-N-methylbenzamide], the IC50 amounted to 370 nM.

On to `Cc1ccc(F)c([C@@H](C)[C@H](NS(=O)(=O)c2ccccc2C(N)=O)c2n[nH]c(=O)o2)c1C` [Example 20, 2-(N-((1S,2R)-2-(6-fluoro-2,3-dimethylphenyl)-1-(5-oxo-4,5-dihydro-1,3,4-oxadiazol-2-yl)propyl)sulfamoyl)benzamide], for which the IC50 stood at 260 nM.

Regarding `Cc1ccc(F)c([C@@H](C)[C@H](NS(=O)(=O)c2ccc(Cl)nc2C(N)=O)c2n[nH]c(=O)o2)c1C` [Example 19, 6-Chloro-3-(N-((1S,2R)-2-(6-fluoro-2,3-dimethylphenyl)-1-(5-oxo-4,5-dihydro-1,3,4-oxadiazol-2-yl)propyl)sulfamoyl)picolinamide], the IC50 was 190 nM.

As for `C[C@H](c1cccc2c1CCC2)[C@H](NS(=O)(=O)c1ccc(Br)cc1F)c1n[nH]c(=O)o1` [Example 60, 4-bromo-N-((1S,2R)-2-(2,3-dihydro-1H-inden-4-yl)-1-(5-oxo-4,5-dihydro-1,3,4-oxadiazol-2-yl)propyl)-2-fluorobenzenesulfonamide], the IC50 came out at 990 nM.

With `Cc1ccc(F)c([C@@H](C)[C@H](NS(=O)(=O)c2ccc3c(c2)C(C)(O)CCO3)c2n[nH]c(=O)o2)c1C` (stereo partly drawn) [Example 195, N-((1S,2R)-2-(6-fluoro-2,3-dimethylphenyl)-1-(5-oxo-4,5-dihydro-1,3,4-oxadiazol-2-yl)propyl)-4-hydroxy-4-methylchroman-6-sulfonamide], the IC50 is 180 nM.

For `COc1cc(Cl)ccc1S(=O)(=O)N[C@H](c1noc(=O)[nH]1)[C@H](C)c1c(F)ccc(C)c1C` [Example 349, 4-chloro-N-((1S,2R)-2-(6-fluoro-2,3-dimethylphenyl)-1-(5-oxo-4,5-dihydro-1,2,4-oxadiazol-3-yl)propyl)-2-methoxybenzenesulfonamide], the IC50 came out at 250 nM.

`Cc1ccc(F)c([C@@H](C)[C@H](NS(=O)(=O)c2ccc3c(c2)C(C)(O)CCC3)c2n[nH]c(=O)o2)c1C` (stereo partly drawn) [Example 194, N-((1S,2R)-2-(6-fluoro-2,3-dimethylphenyl)-1-(5-oxo-4,5-dihydro-1,3,4-oxadiazol-2-yl)propyl)-8-hydroxy-8-methyl-5,6,7,8-tetrahydronaphthalene-2-sulfonamide]: the IC50 is 360 nM.

With `Cc1ccc(F)c([C@@H](C)[C@H](NS(=O)(=O)c2ccc(Cl)c(C(=O)N3C4CCC3COC4)n2)c2n[nH]c(=O)o2)c1C` [Example 116, 6-(3-oxa-8-azabicyclo[3.2.1]octane-8-carbonyl)-5-chloro-N-((1S,2R)-2-(6-fluoro-2,3-dimethylphenyl)-1-(5-oxo-4,5-dihydro-1,3,4-oxadiazol-2-yl)propyl)pyridine-2-sulfonamide], the IC50 turned out to be 70 nM.

Regarding `Cc1ccc(F)c([C@@H](C)[C@H](NS(=O)(=O)c2ccc(F)c(C(C)(C)O)c2F)c2n[nH]c(=O)o2)c1C` [Example 186, 2,4-difluoro-N-((1S,2R)-2-(6-fluoro-2,3-dimethylphenyl)-1-(5-oxo-4,5-dihydro-1,3,4-oxadiazol-2-yl)propyl)-3-(2-hydroxypropan-2-yl)benzenesulfonamide], the IC50 came to 90 nM.

For the compound `COc1cc(Cl)ccc1S(=O)(=O)N[C@H](c1n[nH]c(=O)o1)[C@H](C)c1c(F)ccc(C)c1C` [Example 83, 4-chloro-N-((1S,2R)-2-(6-fluoro-2,3-dimethylphenyl)-1-(5-oxo-4,5-dihydro-1,3,4-oxadiazol-2-yl)propyl)-2-methoxybenzenesulfonamide], the IC50 was found to be 140 nM.

As for `C[C@H](c1cccc2c1CCCC2)[C@H](NS(=O)(=O)c1ccc(N)cc1)c1n[nH]c(=O)o1` [Example 266, 4-amino-N-((1S,2R)-1-(5-oxo-4,5-dihydro-1,3,4-oxadiazol-2-yl)-2-(5,6,7,8-tetrahydronaphthalen-1-yl)propyl)benzenesulfonamide], the half-maximal inhibitory concentration (IC50) was 850 nM.

For `Cc1ccc(F)c([C@@H](C)[C@H](NS(=O)(=O)c2cc3c(cc2C(=O)O)OCCO3)c2n[nH]c(=O)o2)c1C` [Example 223, 7-(N-((1S,2R)-2-(6-fluoro-2,3-dimethylphenyl)-1-(5-oxo-4,5-dihydro-1,3,4-oxadiazol-2-yl)propyl)sulfamoyl)-2,3-dihydrobenzo[b][1,4]dioxin-6-Carboxylic Acid], the IC50 came out at 790 nM.

On to `CCc1ccc(F)c([C@@H](C)[C@H](NS(=O)(=O)c2ccc(Br)cc2C(N)=O)c2n[nH]c(=O)o2)c1C` [Example 96, 5-bromo-2-(N-((1S,2R)-2-(3-ethyl-6-fluoro-2-methylphenyl)-1-(5-oxo-4,5-dihydro-1,3,4-oxadiazol-2-yl)propyl)sulfamoyl)benzamide], for which the IC50 amounted to 100 nM.

For `C[C@H](c1cccc2c1CCCC2)[C@H](NS(=O)(=O)c1ccc(Cl)cn1)c1n[nH]c(=O)o1` [Example 52], the IC50 was 770 nM.

In the case of `C[C@H](c1c(F)ccc2ccccc12)[C@H](NS(=O)(=O)c1ccc(Cl)c2c1OCCC2O)c1n[nH]c(=O)o1` (single isomer, unassigned) [Example 234A], the IC50 was 310 nM.

As for `COc1cc(Cl)ccc1S(=O)(=O)N[C@H](c1n[nH]c(=O)o1)C(O)c1c(F)ccc(C)c1C` (mixture of isomers) [Example 290, 4-chloro-N-((1S)-2-(6-fluoro-2,3-dimethylphenyl)-2-hydroxy-1-(5-oxo-4,5-dihydro-1,3,4-oxadiazol-2-yl)ethyl)-2-methoxybenzenesulfonamide], the IC50 was determined as 840 nM.

Take `Cc1c(Cl)ccc(F)c1[C@@H](C)[C@H](NS(=O)(=O)c1ccc(F)c2c1OCCC2(C)O)c1n[nH]c(=O)o1` (single isomer, unassigned) [Example 229B]: the IC50 came out at 110 nM.

Regarding `Cc1ccc(F)c([C@@H](C)[C@H](NS(=O)(=O)c2cccc3c2OCCN3)c2n[nH]c(=O)o2)c1C` [Example 280, N-((1S,2R)-2-(6-fluoro-2,3-dimethylphenyl)-1-(5-oxo-4,5-dihydro-1,3,4-oxadiazol-2-yl)propyl)-3,4-dihydro-2H-benzo[b][1,4]oxazine-8-sulfonamide], the IC50 amounted to 420 nM.

By IC50 is commonly meant the concentration at which inhibition is half-maximal.
